Reference: PubChem BioAssay (NCI)
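Protocol summary: plate cells (96-well), add compound at 5 concentrations, incubate 48 h, interpolate endpoints linearly. TGI marks complete inhibition of growth.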

Key:
Experiment in all cases: DTP human tumour cell line panel, 48 h
SF-539 CNS = system: SF-539 CNS
HS 578T breast = system: HS 578T breast
MCF7 breast = system: MCF7 breast
U251 CNS = system: U251 CNS
CCRF-CEM leukemia = system: CCRF-CEM leukemia
A498 renal = system: A498 renal
LOX IMVI melanoma = system: LOX IMVI melanoma
NCI-H23 lung = system: NCI-H23 lung
SF-268 CNS = system: SF-268 CNS
DU-145 prostate = system: DU-145 prostate
NCI/ADR-RES ovarian = system: NCI/ADR-RES ovarian
MALME-3M melanoma = system: MALME-3M melanoma
UACC-257 melanoma = system: UACC-257 melanoma
BT-549 breast = system: BT-549 breast
HCT-15 colon = system: HCT-15 colon
ACHN renal = system: ACHN renal
RXF 393 renal = system: RXF 393 renal
RPMI-8226 leukemia = system: RPMI-8226 leukemia
SR leukemia = system: SR leukemia
HCT-116 colon = system: HCT-116 colon
MOLT-4 leukemia = system: MOLT-4 leukemia
OVCAR-5 ovarian = system: OVCAR-5 ovarian
T-47D breast = system: T-47D breast
SK-MEL-28 melanoma = system: SK-MEL-28 melanoma
TK-10 renal = system: TK-10 renal
UACC-62 melanoma = system: UACC-62 melanoma
NCI-H460 lung = system: NCI-H460 lung
OVCAR-8 ovarian = system: OVCAR-8 ovarian
SK-MEL-2 melanoma = system: SK-MEL-2 melanoma
MDA-MB-435 = system: MDA-MB-435
786-0 renal = system: 786-0 renal
OVCAR-4 ovarian = system: OVCAR-4 ovarian
UO-31 renal = system: UO-31 renal
SNB-75 CNS = system: SNB-75 CNS
IGROV1 ovarian = system: IGROV1 ovarian
A549 NSCLC = system: A549 NSCLC
NCI-H226 lung = system: NCI-H226 lung
PC-3 prostate = system: PC-3 prostate
M14 melanoma = system: M14 melanoma
K-562 leukemia = system: K-562 leukemia
OVCAR-3 ovarian = system: OVCAR-3 ovarian
SNB-19 CNS = system: SNB-19 CNS
COLO 205 colon = system: COLO 205 colon
HCC-2998 colon = system: HCC-2998 colon
SN12C renal = system: SN12C renal
HT29 colon = system: HT29 colon
HOP-62 NSCLC = system: HOP-62 NSCLC
SK-MEL-5 melanoma = system: SK-MEL-5 melanoma
MDA-MB-231 breast = system: MDA-MB-231 breast
SK-OV-3 ovarian = system: SK-OV-3 ovarian
SW-620 colon = system: SW-620 colon
HOP-92 NSCLC = system: HOP-92 NSCLC

OC1C(O)C(O)C(O)C(O)C1O (configuration not stated)
TGI (SF-539 CNS): > 1000 µM | TGI (HS 578T breast): > 1000 µM | TGI (MCF7 breast): > 1000 µM | TGI (U251 CNS): > 1000 µM | TGI (CCRF-CEM leukemia): 144 µM | TGI (A498 renal): > 1000 µM | TGI (LOX IMVI melanoma): > 1000 µM | TGI (NCI-H23 lung): > 1000 µM | TGI (SF-268 CNS): > 1000 µM | TGI (DU-145 prostate): > 1000 µM | TGI (NCI/ADR-RES ovarian): > 1000 µM | TGI (MALME-3M melanoma): > 1000 µM | TGI (UACC-257 melanoma): > 1000 µM | TGI (BT-549 breast): > 1000 µM | TGI (HCT-15 colon): > 1000 µM | TGI (ACHN renal): > 1000 µM | TGI (RXF 393 renal): > 1000 µM | TGI (RPMI-8226 leukemia): > 1000 µM | TGI (SR leukemia): > 1000 µM | TGI (HCT-116 colon): > 1000 µM | TGI (MOLT-4 leukemia): 916 µM | TGI (OVCAR-5 ovarian): > 1000 µM | TGI (T-47D breast): > 1000 µM | TGI (SK-MEL-28 melanoma): > 1000 µM | TGI (TK-10 renal): > 1000 µM | TGI (UACC-62 melanoma): > 1000 µM | TGI (NCI-H460 lung): > 1000 µM | TGI (OVCAR-8 ovarian): > 1000 µM | TGI (SK-MEL-2 melanoma): > 1000 µM | TGI (MDA-MB-435): > 1000 µM | TGI (786-0 renal): > 1000 µM | TGI (OVCAR-4 ovarian): > 1000 µM | TGI (UO-31 renal): > 1000 µM | TGI (SNB-75 CNS): > 1000 µM | TGI (IGROV1 ovarian): > 1000 µM | TGI (A549 NSCLC): > 1000 µM | TGI (NCI-H226 lung): > 1000 µM | TGI (PC-3 prostate): > 1000 µM | TGI (M14 melanoma): > 1000 µM | TGI (K-562 leukemia): > 1000 µM | TGI (OVCAR-3 ovarian): > 1000 µM | TGI (SNB-19 CNS): > 1000 µM | TGI (COLO 205 colon): > 1000 µM | TGI (HCC-2998 colon): > 1000 µM | TGI (SN12C renal): > 1000 µM | TGI (HT29 colon): > 1000 µM | TGI (HOP-62 NSCLC): > 1000 µM | TGI (SK-MEL-5 melanoma): > 1000 µM | TGI (MDA-MB-231 breast): > 1000 µM | TGI (SK-OV-3 ovarian): > 1000 µM | TGI (SW-620 colon): > 1000 µM | TGI (HOP-92 NSCLC): > 1000 µM
